This passage reports IC50 results from US20100216767A1, “QUINAZOLINES FOR PDK1 INHIBITION” (priority 2006, published 2010).

The test concerns the target T1, PDK1 kinase (Homo sapiens, UniProt O15530).
T1 sequence (O15530 1-556): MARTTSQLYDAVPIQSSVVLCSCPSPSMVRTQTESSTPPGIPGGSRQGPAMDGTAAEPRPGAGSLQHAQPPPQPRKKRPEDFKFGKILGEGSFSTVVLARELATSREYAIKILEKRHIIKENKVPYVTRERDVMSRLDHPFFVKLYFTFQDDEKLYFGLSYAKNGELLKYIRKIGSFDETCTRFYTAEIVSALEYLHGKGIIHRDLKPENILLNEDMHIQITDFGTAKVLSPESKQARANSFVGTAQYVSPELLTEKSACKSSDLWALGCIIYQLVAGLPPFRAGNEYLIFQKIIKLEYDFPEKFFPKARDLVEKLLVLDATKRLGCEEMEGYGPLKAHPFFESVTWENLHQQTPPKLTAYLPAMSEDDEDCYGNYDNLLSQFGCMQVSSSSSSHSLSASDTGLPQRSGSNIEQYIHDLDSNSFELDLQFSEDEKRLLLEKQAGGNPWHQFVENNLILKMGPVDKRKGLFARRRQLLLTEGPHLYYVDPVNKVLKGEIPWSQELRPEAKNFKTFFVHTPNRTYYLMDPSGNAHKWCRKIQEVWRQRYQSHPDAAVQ
Briefly: PDK1 Kinase Alpha Screen Assay. It counts as biochemical. Particulars: Table 1; 10 μM ATP, 50 nM PDK1-4 peptide. The gist of the method:
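PDK1 phosphorylation of 50 nM biotinylated PDK1-4 peptide with 10 μM ATP in 50 mM Tris pH 7.5, 10 mM MgCl2, 0.1% BSA, 0.01% Tween-20, 2 mM DTT, 2.5% DMSO, 3-18 h. Stopped with EDTA; phosphopeptide detected by AlphaScreen using phospho-(Ser/Thr) PKA substrate antibody on protein A acceptor and streptavidin donor beads, overnight at room temperature.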

A word on the IC50: it is the concentration needed to halve the response being measured. Turning to `COc1cc(-c2nccs2)c(-c2nccs2)c2cnc(Nc3ccc(N4CCOCC4)cc3)nc12` [Example 169, 8-methoxy-N-(4-morpholinophenyl)-5,6-di(thiazol-2-yl)quinazolin-2-amine], the half-maximal inhibitory concentration (IC50) was below 5 µM. To `COc1cc(-c2nccs2)c(-c2nccs2)c2cnc(Nc3ccc(C(=O)N4CCOCC4)cc3)nc12` [Example 170, (4-(8-methoxy-5,6-di(thiazol-2-yl)quinazolin-2-ylamino)phenyl)-(morpholino)methanone] belongs 5 to 10 µM; to `C#Cc1cc2cnc(Nc3cc(OC)cc(-n4nnnc4C)c3)nc2cc1OC` [Example 172, 6-ethynyl-7-methoxy-N-(3-methoxy-5-(5-methyl-1H-tetrazol-1-yl)phenyl)-quinazolin-2-amine], 5 to 10 µM; to `COc1cc2cnc(Nc3cc(CN4CCOCC4)cc(NC(C)=O)c3)nc2cc1OC` [Example 174, N-(3-(6,7-dimethoxy-quinazolin-2-ylamino)-5-(morpholinomethyl)-phenyl)acetamide], below 5 µM. `COc1cc2nc(Nc3cc(CN4CCOCC4)cc(NC(C)=O)c3)ncc2cc1-c1cn[nH]c1` [Example 175, N-(3-(7-methoxy-6-(1H-pyrazol-4-yl)quinazolin-2-ylamino)-5-(morpholino-methyl)phenyl)acetamide] yielded an IC50 below 5 µM.
